This note sets out measurements from ChEMBL document CHEMBL3526130, “An evaluation of using rat-derived single-dose neuropharmacokinetic parameters to project accurately large animal unbound brain drug concentrations” (Drug Metab Dispos, 2012).

The structures appear in SMILES notation.

Series [1] is described as follows: Ratio of unbound drug level in brain to plasma in Sprague-Dawley rat at 35 mg/kg, sc by LC-MS/MS analysis. Type of series: ADME, organism-based. Set-up: dose 35 mg/kg, route subcutaneous.
A short description of series [2]: AUC(0 to infinity) in Sprague-Dawley rat cerebrospinal fluid at 35 mg/kg, sc by LC-MS/MS analysis. The format is ADME, organism-based. Set-up: dose 35 mg/kg, route subcutaneous, time infinity.
Series [3] in a line: AUC(0 to 7 hrs) in Sprague-Dawley rat brain at 35 mg/kg, sc by LC-MS/MS analysis. The format is ADME, organism-based. Set-up: time < 7 hr, dose 35 mg/kg, route subcutaneous.
Series [4] is described as follows: Ratio of unbound brain concentration to drug level in cerebrospinal fluid in Sprague-Dawley rat at 35 mg/kg, sc by LC-MS/MS analysis. Type of series: ADME, organism-based. Set-up: dose 35 mg/kg, route subcutaneous. The note with it: in vivo.
Series [5] is described as follows: AUC(0 to infinity) in Sprague-Dawley rat plasma at 35 mg/kg, sc by LC-MS/MS analysis. Type of series: ADME, organism-based. Further details: time infinity, dose 35 mg/kg, route subcutaneous.
Series [6] can be described thus: AUC(0 to 7 hrs) in Sprague-Dawley rat cerebrospinal fluid at 35 mg/kg, sc by LC-MS/MS analysis. Type of series: ADME, organism-based. Set-up: time < 7 hr, dose 35 mg/kg, route subcutaneous.
Series [7] is described as follows: AUC(0 to 7 hrs) in Sprague-Dawley rat plasma at 35 mg/kg, sc by LC-MS/MS analysis. Type of series: ADME, organism-based. Further details: time < 7 hr, dose 35 mg/kg, route subcutaneous.
Series [8] relates to Nucleic Acid. The experiment in a line: Ratio of drug level in brain to plasma in Sprague-Dawley rat at 35 mg/kg, sc by LC-MS/MS analysis. Type of series: ADME, organism-based. Further details: dose 35 mg/kg, route subcutaneous.
Series [9] can be described thus: AUC(0 to infinity) in Sprague-Dawley rat brain at 35 mg/kg, sc by LC-MS/MS analysis. Type of series: ADME, organism-based. Further details: dose 35 mg/kg, route subcutaneous, time infinity.
For series [10], the system named is Nucleic Acid. The experiment in a line: Ratio of drug level in cerebrospinal fluid to unbound plasma concentration in Sprague-Dawley rat at 35 mg/kg, sc by LC-MS/MS analysis. The following applies: in vivo. Further details: dose 35 mg/kg, route subcutaneous. The format is ADME, organism-based.
Series [11] in a line: Ratio of drug level in brain to plasma in Beagle dog at 1 mg/kg, sc by LC-MS/MS analysis. The note with it: brain and plasma, read-out: BPR. Further details: dose 1 mg/kg, route subcutaneous. The format is ADME, organism-based, Canis lupus familiaris.
Series [12] is described as follows: AUC(0 to 2 hrs) in Sprague-Dawley rat cerebrospinal fluid at 3.2 mg/kg, sc by LC-MS/MS analysis. Type of series: ADME, organism-based. Further details: time < 2 hr, dose 3.2 mg/kg, route subcutaneous.
A short description of series [13]: Ratio of unbound drug level in brain to plasma in Beagle dog at 1 mg/kg, sc by LC-MS/MS analysis. The format is ADME, organism-based, Canis lupus familiaris. Further details: dose 1 mg/kg, route subcutaneous. The note with it: brain and plasma.
The nature of series [14]: AUC(0 to 2 hrs) in cynomolgus monkey brain at 1 mg/kg, sc by LC-MS/MS analysis. Type of series: ADME, organism-based, Macaca fascicularis. Set-up: time < 2 hr, dose 1 mg/kg, route subcutaneous.
A short description of series [15]: AUC(0 to infinity) in Sprague-Dawley rat cerebrospinal fluid at 3.2 mg/kg, sc by LC-MS/MS analysis. Type of series: ADME, organism-based. Further details: time infinity, dose 3.2 mg/kg, route subcutaneous.
Series [16] in a line: Ratio of unbound brain concentration to drug level in cerebrospinal fluid in cynomolgus monkey at 1 mg/kg, sc by LC-MS/MS analysis. The format is ADME, organism-based, Macaca fascicularis. Set-up: dose 1 mg/kg, route subcutaneous. The following applies: in vivo.
Series [17] is described as follows: AUC(0 to infinity) in Sprague-Dawley rat plasma at 3.2 mg/kg, sc by LC-MS/MS analysis. Type of series: ADME, organism-based. Further details: time infinity, dose 3.2 mg/kg, route subcutaneous.
Series [18] can be described thus: AUC(0 to 2 hrs) in Sprague-Dawley rat brain at 3.2 mg/kg, sc by LC-MS/MS analysis. The format is ADME, organism-based. Set-up: time < 2 hr, dose 3.2 mg/kg, route subcutaneous.
Series [19] is described as follows: Unbound fraction in Beagle dog brain at 1 mg/kg, sc by LC-MS/MS analysis. The format is ADME, organism-based, Canis lupus familiaris. Set-up: dose 1 mg/kg, route subcutaneous.
A short description of series [20]: Ratio of unbound brain concentration to drug level in cerebrospinal fluid in Sprague-Dawley rat at 3.2 mg/kg, sc by LC-MS/MS analysis. Type of series: ADME, organism-based. Set-up: dose 3.2 mg/kg, route subcutaneous. The following applies: in vivo.
The nature of series [21]: AUC(0 to 4 hrs) in Beagle dog brain at 1 mg/kg, sc by LC-MS/MS analysis. The format is ADME, organism-based, Canis lupus familiaris. Further details: time < 4 hr, dose 1 mg/kg, route subcutaneous.
A short description of series [22]: Ratio of drug level in brain to plasma in Sprague-Dawley rat at 3.2 mg/kg, sc by LC-MS/MS analysis. The format is ADME, organism-based. Set-up: dose 3.2 mg/kg, route subcutaneous. The following applies: read-out: BPR.
A short description of series [23]: Unbound fraction in Beagle dog plasma at 1 mg/kg, sc by LC-MS/MS analysis. The format is ADME, organism-based, Canis lupus familiaris. Further details: dose 1 mg/kg, route subcutaneous.
Series [24] is described as follows: Unbound fraction in cynomolgus monkey plasma at 1 mg/kg, sc by LC-MS/MS analysis. Type of series: ADME, organism-based, Macaca fascicularis. Further details: dose 1 mg/kg, route subcutaneous.
Series [25] in a line: AUC(0 to 2 hrs) in Sprague-Dawley rat plasma at 3.2 mg/kg, sc by LC-MS/MS analysis. The format is ADME, organism-based. Further details: time < 2 hr, dose 3.2 mg/kg, route subcutaneous.
Series [26] is described as follows: Ratio of unbound drug level in brain to plasma in Sprague-Dawley rat at 3.2 mg/kg, sc by LC-MS/MS analysis. The format is ADME, organism-based. Set-up: dose 3.2 mg/kg, route subcutaneous.
A short description of series [27]: Ratio of unbound drug level in brain to plasma in cynomolgus monkey at 1 mg/kg, sc by LC-MS/MS analysis. The format is ADME, organism-based, Macaca fascicularis. Set-up: dose 1 mg/kg, route subcutaneous. The note with it: brain and plasma.
Series [28] in a line: AUC(0 to infinity) in Sprague-Dawley rat brain at 3.2 mg/kg, sc by LC-MS/MS analysis. The format is ADME, organism-based. Further details: time infinity, dose 3.2 mg/kg, route subcutaneous.
Series [29] has as its system Nucleic Acid. In words: Ratio of drug level in cerebrospinal fluid to unbound plasma concentration in Sprague-Dawley rat at 3.2 mg/kg, sc by LC-MS/MS analysis. The format is ADME, organism-based. Further details: dose 3.2 mg/kg, route subcutaneous. The note with it: in vivo.
A short description of series [30]: AUC(0 to 4 hrs) in Beagle dog plasma at 1 mg/kg, sc by LC-MS/MS analysis. Type of series: ADME, organism-based, Canis lupus familiaris. Set-up: time < 4 hr, dose 1 mg/kg, route subcutaneous.
Series [31] is described as follows: AUC(0 to 2 hrs) in cynomolgus monkey plasma at 1 mg/kg, sc by LC-MS/MS analysis. Type of series: ADME, organism-based, Macaca fascicularis. Further details: time < 2 hr, dose 1 mg/kg, route subcutaneous.
Series [32] in a line: Unbound fraction in cynomolgus monkey brain at 1 mg/kg, sc by LC-MS/MS analysis. Type of series: ADME, organism-based, Macaca fascicularis. Set-up: dose 1 mg/kg, route subcutaneous.
The subject of series [33] is Nucleic Acid. In words: Ratio of drug level in cerebrospinal fluid to unbound plasma concentration in cynomolgus monkey at 1 mg/kg, sc by LC-MS/MS analysis. The note with it: in vivo. Set-up: dose 1 mg/kg, route subcutaneous. Type of series: ADME, organism-based, Macaca fascicularis.
A short description of series [34]: Ratio of drug level in brain to plasma in cynomolgus monkey at 1 mg/kg, sc by LC-MS/MS analysis. Type of series: ADME, organism-based, Macaca fascicularis. The note with it: brain and plasma, read-out: BPR. Set-up: dose 1 mg/kg, route subcutaneous.
Series [35] in a line: AUC(0 to 2 hrs) in cynomolgus monkey cerebrospinal fluid at 1 mg/kg, sc by LC-MS/MS analysis. Type of series: ADME, organism-based, Macaca fascicularis. Set-up: time < 2 hr, dose 1 mg/kg, route subcutaneous.

On to `C=C[C@H]1C[N@@]2CC[C@H]1C[C@@H]2[C@@H](O)c1ccnc2ccc(OC)cc12` [QUINIDINE], for which, in [1], the Kp uu worked out at 0.05. In addition, the AUC(0-inf) stood at 304 ng·h/mL in series [2], 5310 ng·h/mL in [5] and 1880 ng·h/mL in series [9]. Moreover, the AUC(0-t) at 7 h is 1850 ng·h/mL in [3], 302 ng·h/mL in series [6] and 4920 ng·h/mL in series [7]. Moreover, the Ratio in series [4] is reported as 0.22; in the series with Nucleic Acid [10] it was 0.23. Moreover, the BPR in the series with Nucleic Acid [8] was found to be 0.38.
Turning to `CNCc1cc(F)c(Cl)cc1Oc1cccc(OC)c1C`, the values for the Kp in series [11], in series [22] and in [34] were 16.9, 11.1 and 15, respectively. The AUC(0-t) at 2 h was 6.42 ng·h/mL in series [12]; 2250 ng·h/mL in series [14]; 3360 ng·h/mL in [18]; 302 ng·h/mL in series [25]; 150 ng·h/mL in series [31]; 2.18 ng·h/mL in series [35]. Moreover, the results for the Kp uu in [13], in [26] and in [27] were 4.61, 3.9 and 2.04, respectively. The AUC(0-inf) in series [15] was determined as 8.12 ng·h/mL; in series [17], 479 ng·h/mL; in [28], 5570 ng·h/mL. In addition, the Ratio in [16] is on record as 3.92; in series [20], 2.65; with Nucleic Acid [29], 1.47; in the series with Nucleic Acid [33], 0.52. Further, the fraction unbound in series [19] worked out at 0.00443; in series [23] it was 0.0162; in series [24], 0.0279; in series [32], 0.0038. For the same compound, the AUC(0-t) at 4 h stood at 2260 ng·h/mL in [21] and 134 ng·h/mL in [30].

In general, AUC(0-inf) refers to total exposure, with the tail of the curve extrapolated. As a reminder, the AUC(0-t) is the area under the concentration-time curve up to a stated or last time point. By fraction unbound is commonly meant free concentration divided by total concentration.
